The record followed here is patent US5212320A, “Indole derivatives and their use for testosterone 5-alpha-reductase-mediated diseases” (Fujisawa Pharmaceutical Co., Ltd., priority 1990, dated 1993).

Where a name gives a salt, the structure may show the parent alone.

Broadly, the IC50 is the concentration that inhibits the measured activity by half. Lower therefore signals greater potency.

The target in the test is testosterone 5α-reductase. The test is described as follows: Inhibitory activity on testosterone 5α-reductase in rats (prostatic testosterone 5α-reductase assay). It is filed as biochemical, rat (Spraque-Dawley male. To be noted: rat ventral prostate suspension; 2.2×10^-9 M 1,2,6,7-^3H-testosterone/testosterone; 50 μM NADPH; pH 6.5; 37° C., 30 minutes. The text has this:
[2] INHIBITORY ACTIVITY ON TESTOSTERONE 5α-REDUCTASE IN RATS
1,2,6,7-^3 H-Testosterone (85-105 Ci/mmol): 1,2,6,7-^3 H-Testosterone (85-105 Ci/mmol) is a mixture of 1,2,6,7-^3 H-testosterone and testosterone which includes 85-105 Ci of 1,2,6,7-^3H-testosterone per mmol of testosterone and is purchased from New England Nuclear, Boston, Mass., U.S.A.
Aquazol-2 (Aquazol-2 Universal LSC Cocktail): trademark, purchased from New England Nuclear, Boston, Mass., U.S.A.
Mature Spraque-Dawley male rats (7-8 weeks old) were sacrificed by diethyl ether. The ventral prostates were dissected to be free of their capsules and their combined volume was measured by displacement in several milliliters of ice-cold medium A (0.32M sucrose, 0.1 mM dithiothreitol and 20 mM scdium phosphate, pH 6.5). Unless specified, all the following procedures were carried out at 0°-4° C. The prostates were drained, minced, and then homogenized in 3-4 tissue volumes of medium A with Pyrex-glass homogenizer. The homogenate was fractioned by differential centrifugations at 3,000 g for 15 minutes. The resulting pellets were resuspended in medium A. The suspension (20-30 mg protein/ml) was stored at -80° C.
The reaction solution contains 1 mM dithiothreitol, 40 mM sodium phosphate pH 6.5, 50 μM NADPH, 1,2,6,7-^3 H-testosterone/testosterone (2.2×10^-9 M) and the suspension prepared above (0.8 mg of protein) in a total volume of 565 μl. Test Compound was added in 10 μl of 10% ethanol whereas control tubes received the same volume of 10% ethanol. The reaction was started with the addition of the enzyme suspension. After incubation at 37° C. for 30 minutes, the reaction was extracted with 1 ml of ethyl acetate. Fifty μl of ethyl acetate phase was chromatographed on a Merck silica plastic sheet Kieselgel 60 F254, using ethyl acetate: cyclohexane (1:1) as the developing solvent system. The plastic sheet was air dried and cut the testosterone and the 5α-dihydrotestosterone areas. The radioactivity was counted in 5 ml of Aquazol-2 in Packard scintillation counter (PACKARD TRI - CARB 4530), and an inhibitory ratio was calculated.
Compound `CCCCC(Oc1ccc(C(=O)c2cn(CCCC(=O)O)c3ccccc23)cc1)c1ccc(CC(C)C)cc1` (centres unmarked) [(8)] displayed an IC50 of 0.66 nM. To `Cc1c(C(=O)c2cccc(NC(c3ccc(CC(C)C)cc3)c3ccc(CC(C)C)cc3)c2)c2ccccc2n1CCCC(=O)O` [(2), 4-[3-[3-[Bis(4-isobutylphenyl)methylamino]benzoyl]-2-methylindol-1-yl]butyric acid] belongs 8.6 nM; to `CC(C)Cc1ccc(C(Cc2cccc(C(=O)c3cn(CCCC(=O)O)c4ccccc34)c2)c2ccc(CC(C)C)cc2)cc1` [(5), 4-[3-[3-[2,2-Bis(4-isobutylphenyl)ethyl]benzoyl]indol-1-yl]butyric acid], 7.4 nM. With `CC(C)Cc1ccc(C(C)Oc2ccc(C(=O)c3cn(CCCC(=O)O)c4ccccc34)cc2)cc1` (centres unmarked) [(4), 4-[3-[4-[1-(4-Isobutylphenyl)ethoxy]benzoyl]indol-1-yl]butyric acid], the IC50 is 3.1 nM. To `O=C(O)CCCn1cc(C(=O)c2cccc(CN3c4ccccc4CCc4ccccc43)c2)c2ccccc21` [(6), 4-[3-[3-(10,11-Dihydro-5H-dibenz[b,f]azepin-5-ylmethyl)benzoyl]indol-1-yl]butyric acid] belongs 0.93 nM. As for `CC(C)Cc1ccc(C(Oc2ccc(C(=O)c3cn(CCCC(=O)O)c4ccccc34)cc2)c2ccc(CC(C)C)cc2)cc1` [(3), 4-[3-[4-[Bis(4-isobutylphenyl)methoxy]benzoyl]indol-1-yl]butyric acid], the figure is 3.5 nM; as for `CC(C)Cc1ccc(CNc2cc(NCc3ccc(CC(C)C)cc3)cc(C(=O)c3cn(CCCC(=O)O)c4ccccc34)c2)cc1` [(7), 4-[3-[3,5-Bis[(4-isobutylbenzyl)amino]benzoyl]indol-1-yl]butyric acid dihydrochloride], 3.7 nM. To `CC(C)Cc1ccc(C(Nc2cccc(C(=O)c3cn(CCCC(=O)O)c4ccccc34)c2)c2ccc(CC(C)C)cc2)cc1` [(1), 4-[3-[3-[Bis(4-isobutylphen-yl)methylamino]benzoyl]indol-1-yl]butyric acid] belongs 5.5 nM.
